Data set [1] has as its system pregnant C57B1/6 mice. Description: Toxicity dose finding in pregnant mice. The format is in vivo. The following applies: i.p. On the procedure: Triptolide has been previously studied in rodent models of tumor regression (Tengchaisri, et al., 1998, Cancer Lett 133, 169-175; Yang, et al., 2003, Mol Cancer Ther 2, 65-72), but it had not yet been tested in a system utilizing pregnant females. To first establish a potential therapeutic versus lethal concentration of drug delivery, pregnant C57B1/6 mice were treated with incremental concentrations of triptolide between 0.01-0.15 mg/kg/day i.p. injections. Toxicity was assessed as determined by resorption of all embryos or the preponderance of a large percentage of stillborns. With reference to these criteria, triptolide toxicity was determined to be most prominent at concentrations of 0.1 mg/kg/day or greater. […] Another experimental parameter involved the timing of the start of triptolide injections, since polycystin-2 has been implicated in left-right axis formation in the developing embryo at approximately E7.75 (McGrath, et al., 2003, Cell 114, 61-73; Pennekamp, et al., 2002, Curr Biol 12, 938-943). Applicants therefore chose E10.5 as the start of triptolide injections, in order to allow for a normal polycystin-2 mediated patterning event and still leave sufficient time to act on cyst formation during kidney organogenesis.

In data set [2] the test system is Pkd2^+/− murine cell line. Description: Viability of Pkd2^+/− cells. The settings on record: 100 nM. It is filed as cell-based. As to the method:
Calcium response to triptolide was, thus, shown to be dependent on polycystin-2. The biological response to calcium flux was next assessed in the murine Pkd1^−/− cell line, by adding 100 nM triptolide to the cultured cells and observing cell growth over time. Within the first 24 hours of culture, a minimal number of detached cells was observed. […] In the absence of triptolide, this cell line underwent a population doubling every 48 hours. […] It is possible that additional signaling pathways are activated by triptolide when Pkd1 is expressed. […] Therefore, Applicants assessed whether the inhibition of proliferation observed was due to p21 re-expression upon triptolide treatment.
The Pkd1^−/−(MN24), Pkd2^+/−(3B3) and Pkd2^−/−(2D2) murine cell lines were derived from knockout and transgenic mice as previously reported (Wu, et al., 1998, Cell, 93:177-88; Wu, et al., 2000, Nat. Genet, 24:75-8; Wu, et al., 2002, Hum Mol Genet, 11:1845-54). The PKD2-Rex cell line was made by stable integration of untagged PKD2 under hygromycin selection. Antibodies used included polycystin-2 (Cai, et al. 1999, J Biol Chem, 274:28557-65), cleaved (active) caspase-3 (Cell Signaling Technology) and p21 (BD Biosciences). Triptolide was obtained from Sinobest Inc. (China) and purity was 99% as determined by HPLC. DMSO was used to dissolve triptolide and was then directly added into culture media for all experiments. […]

The test system of data set [3] is Pkd1^−/− murine model of polycystic kidney disease. Description: Pkd1^−/− murine model of polycystic kidney disease, treatment during gestation. It is filed as in vivo, mice. As to the method: Following successful Pkd1^+/−/Pkd1^+/− matings, 0.07 mg/kg/day of triptolide or DMSO control was injected i.p. into pregnant mice until they gave birth. All pups were assessed for viability, length, developmental staging, and wet kidney weight. A total of 59 pups from DMSO treated females and 100 pups from triptolide treated females were examined for multiple parameters, such as genotypic distribution, developmental stage at time of birth, and average kidney weights (Table 1). […] Approximately 20% of all Pkd1^−/− mice were born alive from each treatment group. However, severe edematous abnormalities were obvious upon necropsy.
As per approved IACUC animal protocol, Pkd1^+/−/Pkd1^+/− mice were mated and pregnant mice were divided into control (DMSO) or experimental (triptolide) groups. A total volume of 100 μl of PBS with no more than 5% DMSO or DMSO/0.07 mg/kg/day triptolide was injected i.p. with a 28 G ½ insulin syringe. Mice were weighed and injected starting at E10.5 until birth. All pups were examined for length and developmental staging such as whisker formation. Kidneys were harvested, weighed, and fixed in 4% paraformaldehyde before histological preparation.
Kidneys were prepared by sagittal cross-sectioning and hematoxylin and eosin staining. All kidneys were photographed under the same magnification (4×) and cystic burden was computed using Image J analysis software (NIH). The area of cysts within the total area of the kidney (pixels) was calculated as a final percentage of cystic burden in the kidney. Immunohistochemical analysis of active caspase-3 was completed as per manufacturer's protocol.

Where [4] appears, read: 0.07 mg/kg/day i.p. to pregnant mice, E10.5 until birth.

Each structure is given as a SMILES string.

`CC(C)[C@]12O[C@H]1[C@@H]1O[C@]13[C@]1(O[C@H]1C[C@H]1C4=C(CC[C@@]13C)C(=O)OC4)[C@@H]2O` [triptolide, Triptolide]: in data set [1], the “dose at which toxicity was most prominent (resorption of embryos, stillborns)” value is on record as ≥ 0.1 mg/kg/day. In data set [2], the cell death entry was “rapid cell death within 24 hours”. Also, in data set [3] (setting [4]), the “Alive Pkd1^−/− (birth) (number)” value turned out to be 4 and the “Alive Pkd1^−/− (birth) (percent)” value is reported as “Approximately 20%”. Further, the “Alive Pkd1^−/− (birth) (percent)” value in data set [3] (0.07 mg/kg/day i.p. to pregnant mice, E10.5 until birth, listed as Triptolide) was found to be 22%. In addition, the “diameter of cyst lumens on average” value in data set [3] (Pkd1^−/− kidneys) is “smaller”. Also, in data set [3] (Pkd1^−/− kidneys, IHC), the “active caspase-3 immunoreactivity in kidney sections” value was “did not show any significant activation of the caspase pathway”. The kidney morphology entry in data set [3] (mouse, in vivo) is given as “normal morphology”.

For the origin of these results see patent publication US20080188449A1, “Treatment of Conditions Caused By Calcium Abnormalities” (priority 2004, published 2008).
